Results as given in PubChem BioAssay (NCI).
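Briefly, cells in 96-well plates were exposed to five compound concentrations for 48 h, and endpoints were estimated by linear interpolation. TGI: concentration producing complete growth inhibition.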

Assays:
Assay in all cases: NCI anticancer screen, dose series, 48 h
786-0 renal = tested on: 786-0 renal
A498 renal = tested on: A498 renal
A549 NSCLC = tested on: A549 NSCLC
ACHN renal = tested on: ACHN renal
BT-549 breast = tested on: BT-549 breast
CAKI-1 renal = tested on: CAKI-1 renal
DU-145 prostate = tested on: DU-145 prostate
EKVX NSCLC = tested on: EKVX NSCLC
HCT-116 colon = tested on: HCT-116 colon
HCT-15 colon = tested on: HCT-15 colon
HL-60(TB) leukemia = tested on: HL-60(TB) leukemia
HOP-62 NSCLC = tested on: HOP-62 NSCLC
HOP-92 NSCLC = tested on: HOP-92 NSCLC
HS 578T breast = tested on: HS 578T breast
HT29 colon = tested on: HT29 colon
IGROV1 ovarian = tested on: IGROV1 ovarian
K-562 leukemia = tested on: K-562 leukemia
KM12 colon = tested on: KM12 colon
M14 melanoma = tested on: M14 melanoma
MALME-3M melanoma = tested on: MALME-3M melanoma
MCF7 breast = tested on: MCF7 breast
MDA-MB-231 breast = tested on: MDA-MB-231 breast
MDA-MB-435 = tested on: MDA-MB-435
MOLT-4 leukemia = tested on: MOLT-4 leukemia
NCI-H226 lung = tested on: NCI-H226 lung
NCI-H23 lung = tested on: NCI-H23 lung
NCI-H460 lung = tested on: NCI-H460 lung
NCI-H522 lung = tested on: NCI-H522 lung
NCI/ADR-RES ovarian = tested on: NCI/ADR-RES ovarian
OVCAR-3 ovarian = tested on: OVCAR-3 ovarian
OVCAR-4 ovarian = tested on: OVCAR-4 ovarian
OVCAR-5 ovarian = tested on: OVCAR-5 ovarian
OVCAR-8 ovarian = tested on: OVCAR-8 ovarian
PC-3 prostate = tested on: PC-3 prostate
RPMI-8226 leukemia = tested on: RPMI-8226 leukemia
RXF 393 renal = tested on: RXF 393 renal
SF-268 CNS = tested on: SF-268 CNS
SF-295 CNS = tested on: SF-295 CNS
SF-539 CNS = tested on: SF-539 CNS
SK-MEL-2 melanoma = tested on: SK-MEL-2 melanoma
SK-MEL-28 melanoma = tested on: SK-MEL-28 melanoma
SK-MEL-5 melanoma = tested on: SK-MEL-5 melanoma
SK-OV-3 ovarian = tested on: SK-OV-3 ovarian
SN12C renal = tested on: SN12C renal
SNB-19 CNS = tested on: SNB-19 CNS
SNB-75 CNS = tested on: SNB-75 CNS
SR leukemia = tested on: SR leukemia
SW-620 colon = tested on: SW-620 colon
T-47D breast = tested on: T-47D breast
TK-10 renal = tested on: TK-10 renal
U251 CNS = tested on: U251 CNS
UACC-257 melanoma = tested on: UACC-257 melanoma
UACC-62 melanoma = tested on: UACC-62 melanoma
UO-31 renal = tested on: UO-31 renal

## OC1CCC(C2C3CCCCC3C3CCCCC3C2C2CCC(O)CC2)CC1 (centres undefined)
786-0 renal
  TGI: > 100 µM
A498 renal
  TGI: 32.2 µM
A549 NSCLC
  TGI: > 100 µM
ACHN renal
  TGI: 7.48 µM
BT-549 breast
  TGI: 8.87 µM
CAKI-1 renal
  TGI: 13 µM
DU-145 prostate
  TGI: > 100 µM
EKVX NSCLC
  TGI: > 100 µM
HCT-116 colon
  TGI: > 100 µM
HCT-15 colon
  TGI: 6.14 µM
HL-60(TB) leukemia
  TGI: 62.2 µM
HOP-62 NSCLC
  TGI: 47.4 µM
HOP-92 NSCLC
  TGI: 98.9 µM
HS 578T breast
  TGI: > 100 µM
HT29 colon
  TGI: 3.96 µM
IGROV1 ovarian
  TGI: 12.8 µM
K-562 leukemia
  TGI: > 100 µM
KM12 colon
  TGI: 15.5 µM
M14 melanoma
  TGI: > 100 µM
MALME-3M melanoma
  TGI: 41.7 µM
MCF7 breast
  TGI: 34.3 µM
MDA-MB-231 breast
  TGI: 9.66 µM
MDA-MB-435
  TGI: 24.6 µM
MOLT-4 leukemia
  TGI: > 100 µM
NCI-H226 lung
  TGI: > 100 µM
NCI-H23 lung
  TGI: > 100 µM
NCI-H460 lung
  TGI: 10.2 µM
NCI-H522 lung
  TGI: 6.37 µM
NCI/ADR-RES ovarian
  TGI: > 100 µM
OVCAR-3 ovarian
  TGI: > 100 µM
OVCAR-4 ovarian
  TGI: 16 µM
OVCAR-5 ovarian
  TGI: > 100 µM
OVCAR-8 ovarian
  TGI: 20.4 µM
PC-3 prostate
  TGI: > 100 µM
RPMI-8226 leukemia
  TGI: 59.1 µM
RXF 393 renal
  TGI: 7.06 µM
SF-268 CNS
  TGI: 14.5 µM
SF-295 CNS
  TGI: 27.3 µM
SF-539 CNS
  TGI: 75.5 µM
SK-MEL-2 melanoma
  TGI: 25.3 µM
SK-MEL-28 melanoma
  TGI: 9.59 µM
SK-MEL-5 melanoma
  TGI: 23.5 µM
SK-OV-3 ovarian
  TGI: 31 µM
SN12C renal
  TGI: > 100 µM
SNB-19 CNS
  TGI: 32.2 µM
SNB-75 CNS
  TGI: 21.6 µM
SR leukemia
  TGI: > 100 µM
SW-620 colon
  TGI: 19.6 µM
T-47D breast
  TGI: 11 µM
TK-10 renal
  TGI: 34.9 µM
U251 CNS
  TGI: 14 µM
UACC-257 melanoma
  TGI: 33.4 µM
UACC-62 melanoma
  TGI: 31.2 µM
UO-31 renal
  TGI: 36.5 µM
